One block for each compound: values may come before it. Activity calls are given as the source filed them.
Tests used:
[1] = molecular target: T1, Histone-lysine N-methyltransferase NSD2 (Homo sapiens, UniProt O96028); format: biochemical
T1 sequence (O96028 whole entry): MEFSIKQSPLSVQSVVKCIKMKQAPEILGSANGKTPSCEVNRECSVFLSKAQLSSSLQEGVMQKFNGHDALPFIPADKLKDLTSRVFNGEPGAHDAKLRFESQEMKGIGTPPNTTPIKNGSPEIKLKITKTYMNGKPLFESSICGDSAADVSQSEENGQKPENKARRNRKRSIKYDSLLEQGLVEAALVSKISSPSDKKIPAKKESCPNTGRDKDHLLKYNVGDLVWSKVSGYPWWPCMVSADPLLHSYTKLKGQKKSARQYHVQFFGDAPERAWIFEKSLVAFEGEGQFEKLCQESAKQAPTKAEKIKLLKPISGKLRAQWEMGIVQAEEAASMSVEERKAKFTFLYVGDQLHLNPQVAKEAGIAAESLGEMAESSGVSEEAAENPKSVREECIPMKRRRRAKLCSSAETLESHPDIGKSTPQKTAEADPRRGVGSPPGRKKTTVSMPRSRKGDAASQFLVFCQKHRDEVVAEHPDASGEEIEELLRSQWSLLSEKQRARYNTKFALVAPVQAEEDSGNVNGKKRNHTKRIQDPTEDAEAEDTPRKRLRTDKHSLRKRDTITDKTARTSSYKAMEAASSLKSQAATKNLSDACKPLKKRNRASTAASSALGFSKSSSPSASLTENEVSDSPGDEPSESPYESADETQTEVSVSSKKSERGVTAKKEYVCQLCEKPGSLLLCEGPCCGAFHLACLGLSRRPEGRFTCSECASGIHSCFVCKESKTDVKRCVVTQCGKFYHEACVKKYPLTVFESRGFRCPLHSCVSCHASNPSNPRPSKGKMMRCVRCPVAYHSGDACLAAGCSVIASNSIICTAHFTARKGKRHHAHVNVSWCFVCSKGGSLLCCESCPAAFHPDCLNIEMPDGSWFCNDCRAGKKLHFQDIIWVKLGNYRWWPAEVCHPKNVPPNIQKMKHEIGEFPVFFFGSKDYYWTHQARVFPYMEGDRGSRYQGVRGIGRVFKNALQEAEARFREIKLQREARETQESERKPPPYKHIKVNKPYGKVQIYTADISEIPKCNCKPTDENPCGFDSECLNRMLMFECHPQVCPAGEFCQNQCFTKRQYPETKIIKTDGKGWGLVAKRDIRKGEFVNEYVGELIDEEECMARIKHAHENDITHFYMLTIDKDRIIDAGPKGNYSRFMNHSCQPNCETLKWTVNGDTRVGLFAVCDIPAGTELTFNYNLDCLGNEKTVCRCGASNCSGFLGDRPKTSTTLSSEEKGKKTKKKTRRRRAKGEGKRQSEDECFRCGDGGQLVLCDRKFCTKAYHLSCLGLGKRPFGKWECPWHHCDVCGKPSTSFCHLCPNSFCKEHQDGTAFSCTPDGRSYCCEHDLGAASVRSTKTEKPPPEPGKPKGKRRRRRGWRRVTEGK

[2] = tested on: Streptococcus sp. 'group A'; assay: Streptococcus pyogenes SK(-)GAS viability under kanamycin – luminescence, BacTiterGlo, confirmation, counter-screen for streptokinase expression inhibitor project, dose response (AID 1900); format: functional, organism-based
Streptococcus = assay: GAS UMAA2166 growth inhibition – luminescence, BacTiterGlo, counter-screen for streptokinase expression inhibitor project, dose response (AID 1915); format: functional, organism-based;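 further: potency for reduction of bacterial viability or growth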
[3] = Counterscreen for AddAB inhibitors: absorbance-based bacterial cell-based high throughput dose response assay for inhibitors of bacterial viability. [Related pubchem assays (depositor defined):AID435030, AID449728, AID449731, AID488942, AID488955, AID488956]; format: functional
[4] = molecular target: Heat shock protein HSP 90-alpha (Homo sapiens, UniProt P07900); format: functional, organism-based
[5] = molecular target: Ribosomal protein S6 kinase alpha-3 (Homo sapiens, UniProt P51812); format: functional;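 further: measured within a kinome-wide profiling panel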
[6] = molecular target: RAC-gamma serine/threonine-protein kinase (Homo sapiens, UniProt Q9Y243); format: functional
Sequence of RAC-gamma serine/threonine-protein kinase (Q9Y243 whole entry): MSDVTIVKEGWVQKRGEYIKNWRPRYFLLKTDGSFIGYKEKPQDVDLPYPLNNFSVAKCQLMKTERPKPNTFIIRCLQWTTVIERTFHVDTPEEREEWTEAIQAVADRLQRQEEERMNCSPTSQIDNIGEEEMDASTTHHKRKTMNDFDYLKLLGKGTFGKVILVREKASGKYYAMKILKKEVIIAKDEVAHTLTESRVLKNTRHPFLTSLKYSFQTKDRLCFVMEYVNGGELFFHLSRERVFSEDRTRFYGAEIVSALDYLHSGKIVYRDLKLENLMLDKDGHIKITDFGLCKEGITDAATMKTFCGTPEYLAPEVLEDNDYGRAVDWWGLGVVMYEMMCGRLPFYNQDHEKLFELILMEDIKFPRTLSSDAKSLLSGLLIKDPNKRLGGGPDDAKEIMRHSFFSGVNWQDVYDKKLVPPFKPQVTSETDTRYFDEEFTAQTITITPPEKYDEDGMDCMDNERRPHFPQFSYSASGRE

[7] = molecular target: Serine/threonine-protein kinase D2 (Homo sapiens, UniProt Q9BZL6); format: functional;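 further: measured against PRKD2 as one member of a kinome-wide kinase profiling panel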
Sequence of Serine/threonine-protein kinase D2 (Q9BZL6 whole entry): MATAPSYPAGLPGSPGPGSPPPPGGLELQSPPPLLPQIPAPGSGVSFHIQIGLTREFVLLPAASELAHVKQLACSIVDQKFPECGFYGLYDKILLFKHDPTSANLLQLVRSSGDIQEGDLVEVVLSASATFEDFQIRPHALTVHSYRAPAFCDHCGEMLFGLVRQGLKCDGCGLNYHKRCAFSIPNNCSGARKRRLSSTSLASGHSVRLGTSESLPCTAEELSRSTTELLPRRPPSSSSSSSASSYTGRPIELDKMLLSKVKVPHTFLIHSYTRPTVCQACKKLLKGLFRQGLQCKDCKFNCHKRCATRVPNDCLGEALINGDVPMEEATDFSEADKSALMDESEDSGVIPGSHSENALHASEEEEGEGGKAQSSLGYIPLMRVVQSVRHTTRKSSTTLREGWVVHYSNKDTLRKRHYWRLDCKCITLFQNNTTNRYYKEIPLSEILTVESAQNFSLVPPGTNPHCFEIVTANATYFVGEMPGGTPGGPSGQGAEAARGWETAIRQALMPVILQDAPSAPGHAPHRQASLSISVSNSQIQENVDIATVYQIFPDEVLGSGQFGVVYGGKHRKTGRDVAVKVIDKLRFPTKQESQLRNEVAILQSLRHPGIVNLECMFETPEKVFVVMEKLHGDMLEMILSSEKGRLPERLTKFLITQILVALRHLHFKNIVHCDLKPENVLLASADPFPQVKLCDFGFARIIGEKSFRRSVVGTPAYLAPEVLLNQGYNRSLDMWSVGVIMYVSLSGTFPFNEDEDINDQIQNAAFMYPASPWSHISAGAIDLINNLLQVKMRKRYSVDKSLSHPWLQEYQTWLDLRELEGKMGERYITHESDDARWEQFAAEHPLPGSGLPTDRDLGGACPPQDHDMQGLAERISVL

[8] = molecular target: Testis-specific serine/threonine-protein kinase 2 (Homo sapiens, UniProt Q96PF2); format: functional;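 further: part of the Navigating the Kinome panel, target entry STK22B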
[9] = molecular target: Mast/stem cell growth factor receptor Kit (Homo sapiens, UniProt P10721); format: functional;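 further: KIT entry within a kinase panel assay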
[10] = molecular target: Tyrosine-protein kinase ITK/TSK (Homo sapiens, UniProt Q08881); format: functional;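 further: affinity for ITK measured as one member of a broad kinase panel profiling binding across the kinome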
Sequence of Tyrosine-protein kinase ITK/TSK (Q08881 whole entry): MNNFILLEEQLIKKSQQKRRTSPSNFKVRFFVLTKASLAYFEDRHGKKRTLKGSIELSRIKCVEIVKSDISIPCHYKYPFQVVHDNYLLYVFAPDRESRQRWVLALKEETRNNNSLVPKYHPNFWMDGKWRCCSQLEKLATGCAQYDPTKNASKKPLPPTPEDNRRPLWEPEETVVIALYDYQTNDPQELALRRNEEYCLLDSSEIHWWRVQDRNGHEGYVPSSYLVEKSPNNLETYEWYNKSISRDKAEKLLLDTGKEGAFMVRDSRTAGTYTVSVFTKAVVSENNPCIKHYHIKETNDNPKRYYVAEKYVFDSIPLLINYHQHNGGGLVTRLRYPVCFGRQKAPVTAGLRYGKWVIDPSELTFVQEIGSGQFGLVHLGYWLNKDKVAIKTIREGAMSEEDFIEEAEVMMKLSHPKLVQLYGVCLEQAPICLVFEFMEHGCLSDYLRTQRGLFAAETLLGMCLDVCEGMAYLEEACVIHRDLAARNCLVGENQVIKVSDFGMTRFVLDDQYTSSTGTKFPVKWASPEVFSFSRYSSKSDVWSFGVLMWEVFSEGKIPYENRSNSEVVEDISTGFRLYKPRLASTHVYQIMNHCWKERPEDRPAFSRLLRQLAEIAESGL

[11] = molecular target: Proto-oncogene tyrosine-protein kinase ROS (Homo sapiens, UniProt P08922); format: functional;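 further: ROS1 tested as one member of a kinome-wide kinase panel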
[12] = molecular target: MAP/microtubule affinity-regulating kinase 3 (Homo sapiens, UniProt P27448); format: functional;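 further: MARK3 affinity measured as one member of a kinome panel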
[13] = molecular target: Serine/threonine-protein kinase pim-3 (Homo sapiens, UniProt Q86V86); format: functional;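 further: value obtained as one member of a broad kinase panel profiling effort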
[14] = molecular target: Protein kinase C gamma type (Homo sapiens, UniProt P05129); format: functional
[15] = molecular target: Receptor tyrosine-protein kinase erbB-2 (Homo sapiens, UniProt P04626); assay: Navigating the Kinome. Panel member name: ERBB2; format: functional
Sequence of Receptor tyrosine-protein kinase erbB-2 (P04626 whole entry): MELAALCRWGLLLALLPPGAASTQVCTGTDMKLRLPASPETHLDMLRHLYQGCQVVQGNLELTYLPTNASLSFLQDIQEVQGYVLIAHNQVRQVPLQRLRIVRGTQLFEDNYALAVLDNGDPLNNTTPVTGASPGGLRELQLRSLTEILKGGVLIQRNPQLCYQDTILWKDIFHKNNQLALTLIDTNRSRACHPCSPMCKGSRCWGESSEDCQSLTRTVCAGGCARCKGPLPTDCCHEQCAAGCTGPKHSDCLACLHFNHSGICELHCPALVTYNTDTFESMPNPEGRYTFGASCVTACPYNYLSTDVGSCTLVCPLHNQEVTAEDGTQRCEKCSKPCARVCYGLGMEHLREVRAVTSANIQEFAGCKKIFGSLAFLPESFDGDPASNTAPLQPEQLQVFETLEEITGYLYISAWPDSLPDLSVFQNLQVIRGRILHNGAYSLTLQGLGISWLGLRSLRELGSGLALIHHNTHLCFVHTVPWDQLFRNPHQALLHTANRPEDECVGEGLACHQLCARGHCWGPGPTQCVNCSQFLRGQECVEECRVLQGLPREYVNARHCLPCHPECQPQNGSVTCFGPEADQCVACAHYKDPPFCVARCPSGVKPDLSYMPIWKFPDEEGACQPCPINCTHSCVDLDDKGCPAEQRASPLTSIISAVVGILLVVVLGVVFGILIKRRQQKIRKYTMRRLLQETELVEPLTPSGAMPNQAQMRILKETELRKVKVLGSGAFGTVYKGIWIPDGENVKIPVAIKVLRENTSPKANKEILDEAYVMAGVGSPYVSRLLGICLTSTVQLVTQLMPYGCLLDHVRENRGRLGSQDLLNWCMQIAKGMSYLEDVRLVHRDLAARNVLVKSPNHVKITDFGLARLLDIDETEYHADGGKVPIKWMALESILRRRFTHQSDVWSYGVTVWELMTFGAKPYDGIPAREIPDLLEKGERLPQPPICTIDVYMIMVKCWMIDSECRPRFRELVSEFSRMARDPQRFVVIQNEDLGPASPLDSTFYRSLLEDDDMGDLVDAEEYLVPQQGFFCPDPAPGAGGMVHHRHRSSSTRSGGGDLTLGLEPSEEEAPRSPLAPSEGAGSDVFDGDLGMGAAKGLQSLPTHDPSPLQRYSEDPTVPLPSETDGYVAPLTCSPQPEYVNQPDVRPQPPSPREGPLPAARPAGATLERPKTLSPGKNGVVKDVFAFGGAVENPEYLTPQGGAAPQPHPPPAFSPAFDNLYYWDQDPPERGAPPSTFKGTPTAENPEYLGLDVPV

[16] = molecular target: MAP kinase-activated protein kinase 3 (Homo sapiens, UniProt Q16644); format: functional;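 further: value comes from a kinome-wide profiling panel in which MAPKAPK3 is one of the panel members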
Sequence of MAP kinase-activated protein kinase 3 (Q16644 whole entry): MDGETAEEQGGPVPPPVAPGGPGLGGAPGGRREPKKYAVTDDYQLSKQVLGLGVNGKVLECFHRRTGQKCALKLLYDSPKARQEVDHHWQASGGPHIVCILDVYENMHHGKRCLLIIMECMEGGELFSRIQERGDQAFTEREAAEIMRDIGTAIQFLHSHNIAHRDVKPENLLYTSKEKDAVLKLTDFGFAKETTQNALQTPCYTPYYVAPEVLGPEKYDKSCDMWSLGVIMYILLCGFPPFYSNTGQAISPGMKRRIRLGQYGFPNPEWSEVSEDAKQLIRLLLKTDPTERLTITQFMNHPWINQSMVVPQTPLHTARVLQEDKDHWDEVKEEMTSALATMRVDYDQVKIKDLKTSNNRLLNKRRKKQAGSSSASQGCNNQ

Ephrin type-A receptor 2 = Ephrin type-A receptor 2 (Homo sapiens, UniProt P29317); format: functional;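 further: EPHA2 tested as one member of a kinome-wide kinase panel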
[17] = molecular target: Protein-tyrosine kinase 6 (Homo sapiens, UniProt Q13882); format: functional
[18] = molecular target: RAC-alpha serine/threonine-protein kinase (Homo sapiens, UniProt P31749); format: functional;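 further: AKT1 affinity measured as one member of a kinome-wide kinase profiling panel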
[19] = molecular target: 3-phosphoinositide-dependent protein kinase 1 (Homo sapiens, UniProt O15530); format: functional;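 further: value comes from the Navigating the Kinome panel, PDPK1 member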
Sequence of 3-phosphoinositide-dependent protein kinase 1 (O15530 whole entry): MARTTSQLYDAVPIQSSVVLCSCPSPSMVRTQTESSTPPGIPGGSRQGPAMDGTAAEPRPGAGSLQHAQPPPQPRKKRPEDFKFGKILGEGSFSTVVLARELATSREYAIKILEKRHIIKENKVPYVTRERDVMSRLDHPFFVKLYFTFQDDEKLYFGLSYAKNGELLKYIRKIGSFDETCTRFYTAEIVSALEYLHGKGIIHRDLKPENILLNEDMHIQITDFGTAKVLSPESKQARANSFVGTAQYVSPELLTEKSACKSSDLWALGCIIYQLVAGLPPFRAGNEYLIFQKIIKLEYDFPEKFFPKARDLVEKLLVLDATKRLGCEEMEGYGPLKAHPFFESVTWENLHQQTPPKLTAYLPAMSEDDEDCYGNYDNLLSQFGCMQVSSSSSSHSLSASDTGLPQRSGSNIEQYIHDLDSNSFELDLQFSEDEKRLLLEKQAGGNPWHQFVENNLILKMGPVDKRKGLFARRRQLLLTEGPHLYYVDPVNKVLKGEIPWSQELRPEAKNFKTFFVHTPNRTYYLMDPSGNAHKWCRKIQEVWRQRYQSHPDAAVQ

[20] = molecular target: Lymphokine-activated killer T-cell-originated protein kinase (Homo sapiens, UniProt Q96KB5); format: functional;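 further: value comes from a kinase panel screen in which TOPK was one of the panel members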
Sequence of Lymphokine-activated killer T-cell-originated protein kinase (Q96KB5 whole entry): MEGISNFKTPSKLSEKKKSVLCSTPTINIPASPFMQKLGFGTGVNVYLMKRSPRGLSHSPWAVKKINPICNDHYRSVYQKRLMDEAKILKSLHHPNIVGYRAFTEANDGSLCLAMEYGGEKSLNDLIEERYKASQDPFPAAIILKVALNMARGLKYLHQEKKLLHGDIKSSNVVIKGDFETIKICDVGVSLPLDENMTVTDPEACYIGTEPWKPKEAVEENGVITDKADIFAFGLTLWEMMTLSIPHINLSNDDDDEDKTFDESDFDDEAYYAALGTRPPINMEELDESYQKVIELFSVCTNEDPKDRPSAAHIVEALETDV

Structure (SMILES): OCC[n+]1c2ccccc2nc2ccc(N3CCOCC3)cc21
- AC50 [1]: 6.78 µM (active)

Structure (SMILES): Cc1cc(NC(c2ccc(Cl)cc2)c2ccc3cccnc3c2O)no1 (configuration not stated)
- EC50 [2]: 0.416 µM (active)
- EC50 (Streptococcus): 15 µM (active)
- IC50 [3]: > 119 µM (inactive)
- AC50 [4]: 3.87 µM (active)

- Ki [5]: > 2 µM (inactive)
- Ki [6]: 0.0794 µM (active)
- Ki [7]: 0.2 µM (active)
- Ki [8]: 0.0398 µM (active)
- Ki [9]: 0.251 µM (active)
- Ki [10]: > 1.58 µM (inactive)
- Ki [11]: 0.0501 µM (active)
- Ki [12]: > 6.31 µM (inactive)
- Ki [13]: 2.51 µM (active)
- Ki [14]: 1.26 µM (active)
- Ki [15]: 0.0316 µM (active)
- Ki [16]: 0.0501 µM (active)
- Ki (Ephrin type-A receptor 2): > 3.16 µM (inactive)
- Ki [17]: 2 µM (active)
- Ki [18]: 0.0316 µM (active)
- Ki [19]: 0.0794 µM (active)
Structure (SMILES): CS(=O)(=O)N(Cc1ccc2[nH]c(=O)c3cccn3c2c1)C1CC1
- Ki [20]: 2 µM (active)
